Drawing on the NIST ThermoML archive (doi:10.1016/j.fluid.2014.07.038), this text covers Critical pressure and Critical temperature for 15 compounds.

The structures appear in SMILES notation. Numbers after ± are expanded uncertainties.

The conditions of the data set: Liquid; pulse heating to limit of superheat.
Turning to `OCCCO` [propan-1,3-diol], the Critical pressure is given as 6380 ± 520 kPa and the Critical temperature came out at 721 ± 22 K.

Consider `Cc1ccc(C=O)cc1` [4-methylbenzaldehyde], for which the Critical pressure is 3800 ± 200 kPa and the Critical temperature was determined as 712 ± 14 K.

On to `CCCCCCCCCCCCCCCC(=O)OC` [methyl hexadecanoate], for which the Critical pressure was determined as 1170 ± 80 kPa and the Critical temperature was found to be 760 ± 16 K.

As for `Cc1ccc(CO)cc1` [1-(hydroxymethyl)-4-methylbenzene], the Critical pressure was found to be 3610 ± 200 kPa and the Critical temperature came out at 719 ± 14 K.

For the compound `Cc1ccccc1C(=O)O` [2-methylbenzoic acid], the Critical pressure was 3920 ± 240 kPa and the Critical temperature was found to be 763 ± 16 K.

Regarding `CC(C)(CO)CO` [2,2-dimethyl-1,3-propanediol], the Critical pressure is 4200 ± 400 kPa and the Critical temperature was found to be 687 ± 20 K.

Consider `Cc1cccc(C(=O)O)c1` [3-methylbenzoic acid], for which the Critical pressure amounted to 3850 ± 240 kPa and the Critical temperature was 771 ± 16 K.

With `CCCCCCCCCCCCCC(=O)OC` [methyl tetradecanoate], the Critical pressure is on record as 1320 ± 80 kPa and the Critical temperature is given as 730 ± 14 K.

On to `O=Cc1ccccc1C(=O)O` [2-carboxybenzaldehyde], for which the Critical pressure is given as 4800 ± 300 kPa and the Critical temperature was found to be 864 ± 18 K.

On to `CCCCCCCCCCCCCCCCCC(=O)OC` [methyl octadecanoate], for which the Critical pressure was 1080 ± 60 kPa and the Critical temperature is given as 785 ± 16 K.

Turning to `OCc1ccccc1` [benzenemethanol], the Critical pressure turned out to be 4330 ± 200 kPa and the Critical temperature amounted to 713 ± 14 K.

As to `O=Cc1ccccc1` [benzaldehyde], the Critical pressure is reported as 4410 ± 200 kPa and the Critical temperature is listed as 692 ± 14 K.

Consider `O=C(O)c1ccccc1` [benzoic acid], for which the Critical pressure is recorded as 4530 ± 200 kPa and the Critical temperature came out at 755 ± 16 K.

`CCCCCCCC/C=C\CCCCCCCC(=O)OC` [methyl cis-9-octadecenoate]: the Critical pressure is given as 1210 ± 80 kPa and the Critical temperature was determined as 777 ± 16 K.

Regarding `Cc1ccc(C(=O)O)cc1` [4-methylbenzoic acid], the Critical pressure came out at 3800 ± 200 kPa and the Critical temperature is 775 ± 16 K.
